One series addresses T1, PRMT5/MEP50 (Homo sapiens, UniProt O14744).
T1 construct: purchased BPS Bioscience Inc. (USA)
Kind of series: PRMT5 enzymatic activity inhibition experiment (AlphaScreen). Type of series: biochemical. The text has this:
Materials: PRMT5/MEP50 proteins were purchased from BPS Bioscience Inc. (USA); Histone H4 Peptide substrate was purchased from Sangon Biotech (Shanghai) Co., Ltd.; Anti-Histone H4 (symmetric dimethyl R3) antibody—ChIP Grade was purchased from Abcam PLC. (USA); S-(5′-Adenosyl)-L-methionine chloride dihydrochloride was purchased from Sigma PLC. (USA); 384-well plate, AlphaScreen Streptavidin Donor beads, AlphaScreen Protein A Acceptor beads, and Envision 2104 multi-label Reader were purchased from Perkin-Elmer Instruments (USA) Corporation; and Echo 550 Liquid Handler was purchased from Labcyte Inc. (USA).
Enzymatic activity assay: The compounds were added into a 384-well plate by using the Echo 550 Liquid Handler with the final concentration of 0-1000 nM (initial concentration: 1000 nM, 3-fold dilution, for 10 points), and the DMSO content was 0.5%. 10 μL of a 2× PRMT5/MEP50 solution was added into each well and incubated at room temperature for 30 minutes. 10 μL of 2× PRMT5/MEP50 substrate solution was added to each well to start the reaction and incubated at room temperature for 60 minutes. A 6× detection reagent containing AlphaScreen Protein A Acceptor beads and Anti-Histone H4 (symmetric dimethyl R3) antibodies was prepared and 5 μL was added to each well. The plate was incubated at room temperature for 60 minutes. A 6× detection reagent containing AlphaScreen Streptavidin Donor beads was prepared and 5 μL was added to each well. The plate was incubated at room temperature for 60 minutes. The signal values were detected by using the Envision.

The subject of another series is Z-138 cells. Put plainly: Inhibitory activity on tumor cell proliferation (Cell-Titer Glo, 8 days). Type of series: cell-based. The conditions noted are these: Homo sapiens, 192 h, read-out: Inhibition of cell proliferation Z-138 IC50. The protocol: Materials and cells: Z-138 cells were purchased from ATCC (USA); IMDM medium and penicillin-streptomycin were purchased from Sigma PLC. (USA); horse serum was purchased from Hyclone (USA); 96-well plate was purchased from Corning (USA); and Cell-Titer Glo reagent was purchased from Promega (USA).
(§1) Cell culture: Z-138 cells were cultured in an IMDM culture solution containing 10% Horse serum+1% penicillin−streptomycin at 37° C., 5% CO2. Cells in logarithmic growth phase were suitable for the experiment.
Detection of cell proliferation activity: The inhibitory activities of the compounds on the proliferation of Z-138 cells were detected by using the Cell-Titer Glo reagent. The concentrations of the cells were adjusted, and 180 μL was inoculated in each well of the 96-well plate (500/well) and equilibrated for 10-15 minutes at 37° C., 5% CO2. 20 μL of a culture solution containing the compounds was added into each well with the final concentration reaching 0-300 nM (initial concentration: 300 nM, 3-fold dilution, for 10 points), and the DMSO content was 0.1%. The cell plate was placed at 37° C., 5% CO2 and incubated for 8 days. Culture solution was replaced at day 4: 100 μL of the supernatant was slowly aspirated and 100 μL of a fresh culture solution containing the compounds was provided as a supplement while the concentrations of the compounds were held constant. The cell viability was detected by using the Cell-Titer Glo reagent.

In the next series the test system is SDMA in Z-138 cells. Kind of series: Inhibitory activity on SDMA in cells (immunofluorescent assay). Type of series: cell-based. The note with it: Homo sapiens, 48 h, 2 days, read-out: Inhibition of SDMA in cells IC50.
Source text: Materials and cells: Z-138 cells were purchased from ATCC (USA); IMDM medium and penicillin-streptomycin were purchased from Sigma PLC. (USA); horse serum was purchased from Hyclone (USA); Hoechst antibodies were purchased from Invitrogen (USA); Alexa Fluor 488 goat anti-rabbit IgG antibodies were purchased from Invitrogen (USA); Anti-dimethyl-Arginine symmetric (SYM11) antibodies were purchased from Merck & Co., Inc. (USA); DPBS was purchased from Gibco (USA); Nonfat Dry milk was purchased from Cell Signaling Technology (USA); paraformaldehyde was purchased from Beijing Solarbio Science & Technology Co., Ltd.; 384-well plate and Echo 550 Liquid Handler were purchased from Labcyte Inc. (USA); and an ImageXpress Nano was purchased from Molecular Devices (USA).
as §1
Immunofluorescent assay: The effects of the compounds on SDMA in Z-138 cells were detected by using immunofluorescence. The cells were adjusted to the concentration of 1*10^5/mL and 40 μL was inoculated in each well of the 384-well plate (4000/well) and equilibrated for 10-15 minutes at 37° C., 5% CO2. The compound was added into a 384-well plate by using the Echo 550 Liquid Handler with the final concentration of 0-300 nM (initial concentration: 300 nM, 3-fold dilution, for 10 points), and the DMSO content was 0.1%. The cell plate was placed at 37° C., 5% CO2 and incubated for 2 days. 40 μL of 8% paraformaldehyde was added into each well and incubated at room temperature for 30 minutes. The supernatant was discarded, the plate was washed with DPBS, and 40 μL of 0.5% PBST (phosphate buffer with Tween) was added into each well and incubated at room temperature for 60 minutes. The supernatant was discarded, the plate was washed with 0.05% PBST, and 40 μL of a blocking solution (1% Nonfat milk in 0.05% PBST) was added into each well and incubated at room temperature for 60 minutes. The supernatant was discarded, and 20 μL of the primary antibody (SYM11, diluted with a blocking solution at 1:500) was added into each well and maintained at 4° C. overnight. The supernatant was discarded, the plate was washed with 0.05% PBST, 20 μL of the secondary antibody (Alexa Fluor 488 goat anti-rabbit and Hoechst, diluted with a blocking solution at 1:1000 and 1:5000, respectively) was added to each well and incubated at room temperature for 60 minutes. The supernatant was discarded, the plate was washed with 0.05% PBST, and the fluorescent intensity was detected with ImageXpress Nano.

Series [1] can be described thus: Hepatocellular metabolic stability test, human hepatocytes.
Source text: (§2) Experimental materials: Human hepatocytes were purchased from Biopredic; mouse hepatocytes were purchased from BioIVT; acetonitrile and methanol were purchased from Merck & Co., Inc.; AOPI dyes were purchased from Nexcelom; dexamethasone was purchased from NIFDC; DMSO was purchased from Beijing Solarbio Science & Technology Co., Ltd.; DPBS (10×), GlutaMAX™-1 (100×) and recombinant human insulin were purchased form Gibco by Life Technologies; fetal bovine serum was purchased from Corning; formic acid was purchased from DIKMAPURE; Isotonic Percoll was purchased from GE Healthcare; alprazolam was purchased from Supelco; caffeine was purchased from ChromaDex.inc; and HEPES, tolbutamide and Williams' Medium E were purchased from Sigma.
(§3) The powder of a test substance was formulated with DMSO into a stock solution with a high concentration, which was diluted to a working solution of 100 μM with acetonitrile prior to use. The final concentration of the test substance was 1 μM.
(§4) 49.5 mL of Williams'E Medium and 0.5 mL of GlutaMAX were mixed as an incubation media. Hepatocyte thawing media and incubation media were placed in a 37° C. water-bath and pre-heated for at least 15 minutes prior to use. A tube of hepatocytes stored at an ultra-low temperature was taken and the hepatocytes were ensured to be at a frozen state at a low temperature prior to thawing. The hepatocytes were rapidly placed in a 37° C. water-bath and gently shaken until all the ice crystals were dispersed, and then after 70% ethanol was sprayed, the hepatocytes were transferred to a biosafety cabinet. The content of the tube was poured into a centrifugal tube containing 50 mL of thawing media and centrifuged at 100 g for 10 minutes. After centrifugation, the thawing media was aspirated, and a sufficient amount of incubation media was added to obtain a cell suspension with a cell density of about 1.5×10^6 cells/mL. The hepatocytes were counted, and the viable cell density was determined using Cellometer Vision, and the survival rate of the hepatocytes must be higher than 75%. The hepatocyte suspension was diluted by using the incubation media to a viable cell density of 0.5×10^6 viable cells/mL.
(§5) 247.5 μL of viable cell (human hepatocytes or mouse hepatocytes) suspension or media were transferred into a 96-well deep-well plate, and the deep-well plate was placed in a vortex incubator and pre-heated for 10 minutes. Incubation of all the samples was performed in parallel duplicate. Test substance (2.5 μL, 100 μM) was added into each well to start the reaction and the deep-well plate was placed in the vortex incubator again. The samples were incubated, and 25 μL of the suspension was taken at 0, 15, 30, 60, 90 and 120 minutes, respectively. 125 μL of acetonitrile containing internal standard (100 nM alprazolam, 200 nM caffeine, and 100 nM tolbutamide) was added to terminate the reaction. The mixture was vortexed for 10 minutes and centrifuged at 3220 g, 4° C. for 30 minutes. After centrifugation, 100 μL of the supernatant was transferred into the loading plate and 150 μL of pure water was added and mixed uniformly for LC-MS/MS analysis.
(§6) All the data calculation was performed by the Microsoft Excel software. The peak area was detected by extracting the ion chromatogram. The in vitro half-life (t1/2) of the parent drug was detected by performing linear fitting of the natural logarithm of elimination percent of the parent drug and time.
(§7) The in vitro half-life (t1/2) was calculated by means of the slope:
A short description of series [2]: Hepatocellular metabolic stability test, mouse hepatocytes.
Source text: as §2, §3, §4, §5, §6, §7

Each structure is given as a SMILES string.

The values that follow come from US20230250108A1, “TETRAHYDROISOQUINOLINE COMPOUNDS AND USE THEREOF” (JIANGSU SIMCERE PHARMACEUTICAL CO., LTD., priority 2020, published 2023).

T1 sequence (O14744 2-637 limits assumed): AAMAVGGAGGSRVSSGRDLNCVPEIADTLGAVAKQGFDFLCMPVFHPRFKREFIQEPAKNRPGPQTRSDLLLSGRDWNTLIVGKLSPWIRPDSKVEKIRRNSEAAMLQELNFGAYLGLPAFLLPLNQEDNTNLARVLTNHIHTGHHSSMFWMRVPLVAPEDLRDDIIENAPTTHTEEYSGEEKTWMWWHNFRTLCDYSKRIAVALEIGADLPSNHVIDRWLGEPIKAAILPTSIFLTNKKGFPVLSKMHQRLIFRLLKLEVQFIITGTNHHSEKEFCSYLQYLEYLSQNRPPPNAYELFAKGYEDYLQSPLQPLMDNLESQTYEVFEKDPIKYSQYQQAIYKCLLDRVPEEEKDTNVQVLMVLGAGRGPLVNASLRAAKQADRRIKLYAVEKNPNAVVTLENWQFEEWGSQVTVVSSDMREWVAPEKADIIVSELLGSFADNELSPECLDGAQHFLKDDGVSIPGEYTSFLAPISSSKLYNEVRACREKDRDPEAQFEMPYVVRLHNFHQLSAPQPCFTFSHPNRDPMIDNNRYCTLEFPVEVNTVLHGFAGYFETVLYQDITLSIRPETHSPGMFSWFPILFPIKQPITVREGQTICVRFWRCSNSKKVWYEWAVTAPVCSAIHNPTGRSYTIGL
T1 sequence (Q9BQA1 2-342 partner limits assumed): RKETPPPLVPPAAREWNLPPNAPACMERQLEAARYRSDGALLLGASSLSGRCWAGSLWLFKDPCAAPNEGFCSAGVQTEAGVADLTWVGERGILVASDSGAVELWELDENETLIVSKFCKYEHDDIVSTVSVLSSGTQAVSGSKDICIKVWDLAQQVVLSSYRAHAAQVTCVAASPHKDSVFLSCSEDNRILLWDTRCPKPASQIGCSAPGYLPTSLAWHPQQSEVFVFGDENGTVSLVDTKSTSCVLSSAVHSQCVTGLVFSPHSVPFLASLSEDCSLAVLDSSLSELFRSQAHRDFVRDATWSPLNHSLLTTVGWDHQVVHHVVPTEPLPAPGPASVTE

With `CCN1CCN(C[C@@H](O)[C@@H]2Cc3ccccc3CN2)C(=O)c2ccc(C(=O)N3CCC4(CC3)CC(OC)C4)cc21.Cl` [Compound 002, 1-ethyl-4-((R)-2-hydroxy-2-((S)-1,2,3,4-tetrahydroisoquinolin-3-yl)ethyl)-8-(2-methoxy-7-azaspiro[3.5]nonane-7-carbonyl)-1,2,3,4-tetrahydro-5H-benzo[e][1,4]diazepin-5-one hydrochloride], the IC50 came out at 4.05 nM at PRMT5/MEP50, 2.19 nM in the series with Z-138 cells and 1.4 nM in the series with SDMA in Z-138 cells. Further, the half-life at 1 μM in series [1] was found to be 4.21 h; in series [2], 1.58 h.
